Measurements published in patent publication US12540143B2, “Methods and compositions for targeted protein degradation” (Ranok Therapeutics (Hangzhou) Co. Ltd., priority 2019, dated 2026).

Tested on: MV4-11 cells
Assay: MV4-11 Cytotoxicity Assay
Format: cell-based, human
Settings: Homo sapiens, MV4-11, 72 h, read-out: MV4-11 cytotoxicity

SMILES | IC50 [nM]
CCc1cc(-c2nnc(C(=O)NCC(F)(F)F)n2-c2ccc(CN3CCN(CC4CCN(C(=O)C[C@@H]5N=C(c6ccc(Cl)cc6)c6c(sc(C)c6C)-n6c(C)nnc65)CC4)CC3)cc2)c(O)cc1O [Compound 14, 4-(4-((4-((1-(2-((6S)-4-(4-chlorophenyl)-2,3,9-trimethyl-6H-thieno[3,2-f][1,2,4]triazolo[4,3-a][1,4]diazepin-6-yl)acetyl)piperidin-4-yl)methyl)piperazin-1-yl)methyl)phenyl)-5-(5-ethyl-2,4-dihydroxyphenyl)-N-(2,2,2-trifluoroethyl)-4H-1,2,4-triazole-3-carboxamide, trifluoroacetic acid] | < 100

Same assay, conditions: Homo sapiens, MV4-11; 72 hr, CCK-8; read-out: MV4-11 cytotoxicity

SMILES | IC50 [nM]
CCCc1cc(-c2nnc(O)n2-c2ccc(CN3CCN(CC4CCN(C(=O)C[C@@H]5N=C(c6ccc(Cl)cc6)c6c(sc(C)c6C)-n6c(C)nnc65)CC4)CC3)cc2)c(O)cc1O [Compound 11, (S)-2-(4-(4-chlorophenyl)-2,3,9-trimethyl-6H-thieno[3,2-f][1,2,4]triazolo[4,3-a][1,4]diazepin-6-yl)-1-(4-((4-(4-(3-(2,4-dihydroxy-5-propylphenyl)-5-hydroxy-4H-1,2,4-triazol-4-yl)benzyl)piperazin-1-yl)methyl)piperidin-1-yl)ethan-1-one, trifluoroacetic acid] | < 100
Cc1sc2c(c1C)C(c1ccc(Cl)cc1)=N[C@@H](CC(=O)N1CCC(CN3CCN(Cc4ccc(-n5c(S)nnc5-c5cc(C(C)C)c(O)cc5O)cc4)CC3)CC1)c1nnc(C)n1-2 [Compound 12, 2-((6S)-4-(4-chlorophenyl)-2,3,9-trimethyl-6H-thieno[3,2-f][1,2,4]triazolo[4,3-a][1,4]diazepin-6-yl)-1-(4-((4-(4-(3-(2,4-dihydroxy-5-isopropylphenyl)-5-mercapto-4H-1,2,4-triazol-4-yl)benzyl)piperazin-1-yl)methyl)piperidin-1-yl)ethanone, trifluoroacetic acid] | < 100
Cc1sc2c(c1C)C(c1ccc(Cl)cc1)=N[C@@H](CC(=O)N1CCC(CN3CCN(Cc4ccc(-n5c(C(=O)NCC(F)(F)F)nnc5-c5cc(C(C)C)c(O)cc5O)cc4)CC3)CC1)c1nnc(C)n1-2 [Compound 13, 4-(4-((4-((1-(2-((6S)-4-(4-chlorophenyl)-2,3,9-trimethyl-6H-thieno[3,2-f][1,2,4]triazolo[4,3-a][1,4]diazepin-6-yl)acetyl)piperidin-4-yl)methyl)piperazin-1-yl)methyl)phenyl)-5-(2,4-dihydroxy-5-isopropylphenyl)-N-(2,2,2-trifluoroethyl)-4H-1,2,4-triazole-3-carboxamide] | < 100
Cc1cc(-c2nnc(C(=O)NCC(F)(F)F)n2-c2ccc(CN3CCN(CC4CCN(C(=O)C[C@@H]5N=C(c6ccc(Cl)cc6)c6c(sc(C)c6C)-n6c(C)nnc65)CC4)CC3)cc2)c(O)cc1O [Compound 15, 4-(4-((4-((1-(2-((6S)-4-(4-chlorophenyl)-2,3,9-trimethyl-6H-thieno[3,2-f][1,2,4]triazolo[4,3-a][1,4]diazepin-6-yl)acetyl)piperidin-4-yl)methyl)piperazin-1-yl)methyl)phenyl)-5-(2,4-dihydroxy-5-methylphenyl)-N-(2,2,2-trifluoroethyl)-4H-1,2,4-triazole-3-carboxamide, trifluoroacetic acid] | < 100
Cc1sc2c(c1C)C(c1ccc(Cl)cc1)=N[C@@H](CC(=O)N1CCC(CN3CCN(Cc4ccc(-n5c(O)nnc5-c5cc(C(C)C)c(O)cc5O)cc4F)CC3)CC1)c1nnc(C)n1-2 [Compound 17, (S)-2-(4-(4-chlorophenyl)-2,3,9-trimethyl-6H-thieno[3,2-f][1,2,4]triazolo[4,3-a][1,4]diazepin-6-yl)-1-(4-((4-(4-(3-(2,4-dihydroxy-5-isopropylphenyl)-5-hydroxy-4H-1,2,4-triazol-4-yl)-2-fluorobenzyl)piperazin-1-yl)methyl)piperidin-1-yl)ethan-1-one, trifluoroacetic acid] | < 100
